Like-named read-outs stand apart in the source and are kept apart here.
Key:
E. coli DXR [1] = biological target: T1, E. coli DXR (Escherichia coli, UniProt P45568); experiment: DXR inhibition assay, pre-column derivatization HPLC method; assay type: biochemical; conditions: for Inhibition (%) Triton, lower concentration / Inhibition (%) Triton, higher concentration: 0.01% Triton X-100; for Inhibition (%) Triton, lower concentration / Inhibition (%) No Triton, lower concentration: conc: TF 150, TF3G 30, TF3′G 20, TF3,3′G 15, baicalein 50 μM; for Inhibition (%) Triton, higher concentration / Inhibition (%) No Triton, higher concentration: conc: TF 250, TF3G 50, TF3′G 40, TF3,3′G 30, baicalein 100 μM; for IC50: 2 mM VC, 0.5 mM NADPH, 1 mM DXP, 37 °C, 30 min, read-out: IC50 against DXR; for Inhibition (%) No Triton, lower concentration / Inhibition (%) No Triton, higher concentration: no Triton X-100
T1 construct: made in house
T1 sequence (P45568 whole entry): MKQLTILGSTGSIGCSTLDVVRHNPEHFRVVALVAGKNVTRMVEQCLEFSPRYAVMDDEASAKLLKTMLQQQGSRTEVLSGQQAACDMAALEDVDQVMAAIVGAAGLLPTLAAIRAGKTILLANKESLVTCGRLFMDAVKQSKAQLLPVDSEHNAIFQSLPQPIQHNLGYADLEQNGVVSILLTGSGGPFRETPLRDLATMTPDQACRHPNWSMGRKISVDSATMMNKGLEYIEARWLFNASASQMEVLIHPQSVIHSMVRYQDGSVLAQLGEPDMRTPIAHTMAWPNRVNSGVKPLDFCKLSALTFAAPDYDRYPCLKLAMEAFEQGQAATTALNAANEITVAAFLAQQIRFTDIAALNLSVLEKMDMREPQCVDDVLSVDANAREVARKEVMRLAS
Description: Then, we evaluated the DXR inhibitory activity of all four theaflavins at a final concentration of approximately 150 μM, employing 2% DMSO as a co-solvent and VC as a protective agent. […] Encouraged by these experiments, we further determined the DXR inhibitory effects of the theaflavins at different concentrations.
We therefore determined the DXR inhibitory activity of the theaflavins using 0.01% Triton X-100 as a surfactant to verify whether the theaflavins were aggregating inhibitors of DXR. Exactly the same procedure as described in the experimental part was followed to carry out the measurements. […] Then, we set two distinct concentrations for each of the theaflavins to evaluate its inhibition against DXR, one was close to its IC50 value and the other was about twice of it.
The inhibitory activity of the theaflavins and baicalein against E. coli DXR was determined using the pre-column derivatization HPLC method published by this group with minor modifications[29]. The assay mixture consists of 50 mM Tris-HCl (pH 7.4), 5 mM MgCl2, 2 mM VC, 0.5 mM NADPH, 2% (W/V) DMSO or 0.01% Triton X-100, and 4 μg/mL DXR in a final volume of 100 μL. The theaflavin compounds or baicalein were added to the mixtures separately before the addition of DXP (final conc. 1 mM) to start the reaction. […] The reaction mixture was incubated at 37 °C for 30 min before the DXR was inactivated by boiling for 3 minutes. Subsequently, 10 μL AP buffer (1 M Tris-HCl, 1 M NaCl2 50 mM MgCl2, pH 9.5) and 2 U AP were added, and the mixture was incubated at 37 °C for 120 min. 10 μL DNPH (120 mM in 30% perchloric acid, V/V) and 280 μL methanol were supplemented. After incubated at 37 °C for another 45 min, the mixture was centrifuged at 6000 rpm for 3 min and the supernatant was used for HPLC analysis on the Agilent 1200 HPLC system. HPLC conditions: Column, Shim-pack VP-ODS column (250 × 4.6 mm, 4.6 μm). Injection volume: 60 μL. Gradient: 0 min, 40% acetonitrile; 17 min, 80% acetonitrile; 18–20 min, 40% acetonitrile. Detection wavelength: 360 nm. Flow rate: 0.7 mL/min. Column temperature: 30 °C.

[2] = Particle size analysis by dynamic light scattering (DLS); assay type: physicochemical; conditions: 50 mM Tris-HCl pH 7.4, 2 mM VC, 2% DMSO; for DLS Count Rate, with 4 μg/mL DXR / DLS Count Rate, without DXR: conc: TF 500, TF3G 100, TF3′G 100, TF3,3′G 70, baicalein 200 μM
Description: DLS is a widely utilized technique in materials science to measure particle sizes in solutions[20][21]. […] Baicalein was referenced as a positive control owing to the same reason as mentioned above. The particle size evaluation was performed by a DLS analyzer and the results display that except for baicalein, the theaflavins produce no detectable particles.
The particle size of the theaflavin compounds and baicalein in Tris-HCl buffer (50 mM, pH 7.4) containing 2 mM VC and 2.0% DMSO (V/V) was measured in the absence and presence of DXR (final concentration: 4 μg/mL) on a DLS analyzer (NICOMP-380, Particle Sizing Systems, Inc., Santa Barbara, Calif., USA). The detector time was set to 10 min. […] A solution of 2.0% aqueous DMSO was used as a reference.

[3] = design: method as in earlier work; conditions: cited from earlier work
Plasmodium falciparum = conditions: malaria caused by Plasmodium falciparum; cited from earlier work
[4] = Stability of the theaflavins under the DXR assay conditions (HPLC); assay type: physicochemical; conditions: 100 μM before incubation, 50 mM Tris-HCl pH 7.4, 37 °C, 35 min; for Concentration after incubation in the absence of 2 mM VC: no VC
Description: The theaflavins are unstable compounds, especially under a basic condition. Because the DXR inhibition assay needs to be carried out in 50 mM Tris-HCl buffer at pH 7.4 and incubated at 37 °C for 30 min, we have to test whether the theaflavins can survive the assay condition, although it is almost neutral. The compounds were actually incubated at 37 °C for 35 min, 5 min longer than that of the real DXR assay. The results, as depicted in Table 1, indicate that almost half of the theaflavins decomposed after incubation. That is to say that these compounds are unstable even under the weak basic condition. […] Thus VC (2 mM) was used to protect the theaflavins in the following assays.
Stability of the theaflavins in Tris-HCl buffer was evaluated using an Agilent 1200 HPLC equipped with a DAD detector. The theaflavins were separately diluted into 50 mM Tris-HCl buffer (pH 7.4) containing 5 mM MgCl2 and 2% (W/V) DMSO to a final concentration of 100 μM in the absence and presence of 2 mM VC. The mixtures were subsequently incubated at 37 °C for 35 min before they were centrifuged at 6000 rpm for 3 min and analyzed. HPLC conditions: Column, Shim-pack VP-ODS column (250 × 4.6 mm, 4.6 μm). Detection wavelength: 280 nm. Injection volume: 20 μL. The mobile phase consists of 60% solvent A [2% acetic acid in water (v/v)] and 40% solvent B (acetonitrile). Flow rate: 0.7 mL/min. Column temperature: 25 °C. […]
1. Stability of the theaflavins under the DXR assay conditions
In order to evaluate the stability of the theaflavins under the DXR assay conditions, each compound was diluted into 50 mM Tris-HCl buffer (pH 7.4) and incubated at 37 °C for 35 min in the absence and presence of 2 mM VC before they were determined by HPLC. The HPLC profiles were listed in Fig. S1. From the figure we are able to see that in the presence of 2 mM VC, the four theaflavin compounds are stable because the peak area of each compound remains almost unchanged after incubation (B). But they are unstable in the absence of VC because the peak areas of all four […]
(1 picture or pasted object on this page, not shown here)
Figure S1. The stabilitiy of the theaflavin compounds under DXR assay conditions. A. Mixtures of VC and individual theaflavins in 50 mM Tris-HCl buffer (pH 7.4) before incubation; B. Mixtures of VC and individual theaflavins in same buffer after incubated at 37 °C for 35 min; C. Individual theaflavins in same buffer after incubated at 37 °C for 35 min. In A and B. Line 1, TF (100 μM) plus VC (2 mM); Line 2, TF3G (100μM) plus VC (2 mM); Line 3, TF3’G (100μM) plus VC (2 mM); Line 4, TF3,3’G (100μM) plus VC (2 mM). In C. Line 1, TF (100 μM); Line 2, TF3G (100μM); Line 3, TF3’G (100μM); Line 4, TF3,3’G (100μM). HPLC conditions:
Column, Shim-pack VP-ODS column (250 × 4.6 mm, 4.6μm). Detection wavelength: 280 nm. The mobile phase consisted of 60% solvent A [2% acetic acid in water (v/v)] and 40% solvent B (acetonitrile). Flow rate:
0.7 mL/min. Column temperature: 25 °C. […]

E. coli DXR [5] = biological target: T1, E. coli DXR; experiment: Inhibition kinetics against DXR (Lineweaver-Burk plots); assay type: biochemical; conditions: for Ki: 2 μg/mL DXR; for Kinetics (DXP): inhibition mode with respect to DXP; for Kinetics (NADPH): inhibition mode with respect to NADPH
Description: Lineweaver-Burk (LB) graphical charts were obtained by plotting the reciprocal of the reaction velocity against the reciprocal of the concentration of DXP/NADPH.
For A, the mixtures contained 1 mM DXP and NADPH (final conc. 0.05 to 0.275 mM); For B, the mixtures contained 0.5 mM NADPH and DXP (final conc. 0.075 to 0.3375 mM). The incubation was performed for 10 min at 37 °C before the reaction mixtures were hydrolyzed with AP, derivatized with DNPH, and analyzed using the HPLC method.
Lineweaver–Burk plots of DXR with respect to NADPH in the absence and presence of TF (A-1),
Assay mixtures comprised 50 mM tris-HCl (pH 7.4), 5 mM
MgCl2, 2 mM VC, the theaflavins (TF: 0, 2, 10, 20 μM; the other three compounds: 0, 1, 4, or 8 μM), 1 mM DXP and 2 μg/mL DXR in a final volume of 100 μL. Then, NADPH (final conc. 0.05 to 0.275 mM) was added, and incubation was performed for 10 min at 37 °C before the reaction mixtures were hydrolyzed with AP, derivatized with DNPH, and analyzed using the HPLC method. (A-1) DXR inhibition kinetics of TF; (A-2) DXR inhibition kinetics of TF3G; (A-3) DXR inhibition kinetics of TF3’G; (A-4) DXR inhibition kinetics of
Lineweaver–Burk plots of DXR with respect to DXP in the absence and presence of TF (B-1),
MgCl2, 2 mM VC, the theaflavins (TF: 0, 5, 10, 20 μM; the other three compounds: 0, 1, 4, or 8 μM), 0.5 mM NADPH, and 2 μg/mL. DXR in a final volume of 100 μL. Then, DXP (final conc. 0.075 to 0.3375 mM) was added, and incubation proceeded for 10 min at 37 °C before the reaction mixtures were hydrolyzed with AP, derivatized with DNPH, and analyzed using the HPLC method. (B-1) DXR inhibition kinetics of TF; (B-2) DXR inhibition kinetics of TF3G; (B-3) DXR inhibition kinetics of TF3’G; (B-4) DXR inhibition kinetics of

Calf intestine AP = biological target: T2, Calf intestine AP (Bos taurus, UniProt P19111); experiment: Alkaline phosphatase (AP) inhibition assay, HPLC method; assay type: biochemical; conditions: 2 mM
T2 construct: purchased Takara (Dalian, China)
T2 sequence (P19111 20-533): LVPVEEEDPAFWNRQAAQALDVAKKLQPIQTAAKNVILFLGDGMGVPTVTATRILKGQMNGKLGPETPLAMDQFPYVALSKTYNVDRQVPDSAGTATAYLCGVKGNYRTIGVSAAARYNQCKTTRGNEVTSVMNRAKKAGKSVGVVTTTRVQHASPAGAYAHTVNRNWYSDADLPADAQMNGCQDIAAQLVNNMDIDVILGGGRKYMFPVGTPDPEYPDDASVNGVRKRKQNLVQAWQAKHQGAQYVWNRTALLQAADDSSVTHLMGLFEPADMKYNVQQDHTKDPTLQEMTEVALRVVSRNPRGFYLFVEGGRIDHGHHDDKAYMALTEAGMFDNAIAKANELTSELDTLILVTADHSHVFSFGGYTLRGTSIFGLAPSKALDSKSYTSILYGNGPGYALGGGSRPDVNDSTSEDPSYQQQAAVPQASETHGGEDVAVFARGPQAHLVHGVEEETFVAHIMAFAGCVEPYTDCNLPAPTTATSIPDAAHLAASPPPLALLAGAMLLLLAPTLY
Description: The other factor that could influence the determination of inhibitory activity of the theaflavins against DXR would be the AP because we must use it to dephosphorylate DXP before DNPH derivatization. We thus measured whether VC and the theaflavins might display any inhibition against this enzyme. We find that VC has no effect on the activity of AP at 2 mM and the four theaflavins also have no inhibition against AP at all (Fig. 4), even at final concentrations as high as 500 μM.
Figure 4 Determination of inhibition of VC and the theaflavins against AP. The reaction mixtures comprise 10 μL AP buffer and 2 U AP in a final volume of 100 μL, DXP was added (final conc. 1 mM) to start the reaction. The reaction mixtures were incubated at 37 °C for 120 min and subsequently derivatized with DNPH and analyzed with the HPLC method. For VC assay, 2 mM VC was added before the addition of DXP. For assays of the theaflavins, the compounds were added separately before the addition of DXP (two concentrations, 20 and 500 μM for each compound were applied).
The HPLC method described above was also used to determine the inhibitory activity of the theaflavins against AP. The reaction mixture comprises 2 mM VC, 10 μL AP buffer and 2 U AP in a final volume of 100 μL. […] Then, the reaction mixture was derivatized with DNPH and analyzed with the HPLC method.

[6] = DXP as varied substrate, 0.5 mM NADPH, read-out: Ki (DXP)
[7] = NADPH as varied substrate, 1 mM DXP, read-out: Ki (NADPH)

Row | Molecule | DLS Count Rate, with 4 μg/mL DXR ([2]; 4 μg/mL DXR) [KHz] | DLS Count Rate, without DXR [2] [KHz] | Concentration after incubation in the presence of 2 mM VC [4] [µM] | Concentration after incubation in the absence of 2 mM VC [4] [µM] | Inhibition (%) Triton, lower concentration (E. coli DXR [1]) [%] | Inhibition (%) Triton, higher concentration (E. coli DXR [1]) [%] | IC50 (E. coli DXR [1]; 2% DMSO) [µM] | Inhibition (%) No Triton, lower concentration (E. coli DXR [1]) [%] | Inhibition (%) No Triton, higher concentration (E. coli DXR [1]) [%] | Ki (E. coli DXR [5]; [6]) [µM] | Ki (E. coli DXR [5]; [7]) [µM] | Kinetics (DXP) (E. coli DXR [5]) | Kinetics (NADPH) (E. coli DXR [5]) | other results
1 | O=c1cc(-c2ccccc2)oc2cc(O)c(O)c(O)c12 [Baicalein, baicalein, reference compound] | 296 ± 19.7 | 2.6 ± 0.5 |  |  |  |  |  |  |  |  |  |  |  | inhibition at 100 µM (E. coli DXR [1]; read-out: Inhibition (%) No Triton, higher concentration): 63.5 ± 2.9%; inhibition at 50 µM (E. coli DXR [1]; read-out: Inhibition (%) No Triton, lower concentration): 37.6 ± 4.7%; inhibition at 100 µM (E. coli DXR [1]; read-out: Inhibition (%) Triton, higher concentration): 6.5 ± 4.6%; inhibition at 50 µM (E. coli DXR [1]; read-out: Inhibition (%) Triton, lower concentration): 5.1 ± 3.9%; DLS Size, with 4 μg/mL DXR ([2]; 4 μg/mL DXR, baicalein 200 μM): 429.2 ± 84.7 nm
2 | O=CN(O)CCCP(=O)(O)O [Fosmidomycin, fosmidomycin] |  |  |  |  |  |  |  |  |  |  |  |  |  | Inhibition of DXR activity (positive control) (E. coli DXR [1]; 1.0 μM): complete inhibition; Bioavailability [3]: poor; Plasma half-life [3]: ~ 1 h; Efficacy in treating malaria (clinical data) (Plasmodium falciparum): somewhat effective
3 | O=C(O[C@@H]1Cc2c(O)cc(O)cc2O[C@@H]1c1cc(O)c(=O)c2c(O)c(O)cc([C@H]3Oc4cc(O)cc(O)c4C[C@H]3OC(=O)c3cc(O)c(O)c(O)c3)c2c1)c1cc(O)c(O)c(O)c1 [TF3,3′G, theaflavin-3,3′-digallate] | 4.8 ± 0.4 | 2.2 ± 0.4 | 96.72 ± 2.78 | 55.26 ± 4.32 |  |  |  |  |  |  |  |  |  | 
4 | O=C(O[C@@H]1Cc2c(O)cc(O)cc2O[C@@H]1c1cc(O)c(O)c2c(=O)c(O)cc([C@H]3Oc4cc(O)cc(O)c4C[C@H]3O)cc12)c1cc(O)c(O)c(O)c1 [TF3G] | 4.6 ± 0.5 | 2.6 ± 0.5 | 98.15 ± 2.86 | 60.88 ± 2.77 | 52.7 ± 2.4 | 67.9 ± 3.4 | 29.2 ± 2.6 | 52.6 ± 3.2 | 69.6 ± 2.7 | 30.2 ± 2.6 | 24.7 ± 3.2 | Noncompetitive | Uncompetitive | 
5 | O=C(O[C@@H]1Cc2c(O)cc(O)cc2O[C@@H]1c1cc(O)c(=O)c2c(O)c(O)cc([C@H]3Oc4cc(O)cc(O)c4C[C@H]3O)c2c1)c1cc(O)c(O)c(O)c1 [TF3′G, theaflavin-3′-gallate] | 5.2 ± 0.4 | 1.4 ± 0.5 | 98.08 ± 3.02 | 61.17 ± 4.29 | 42.5 ± 3.3 | 70.7 ± 3.3 | 23.7 ± 2.9 | 41.3 ± 2.9 | 70.3 ± 3.4 | 22.2 ± 3.1 | 22.4 ± 2.1 | Noncompetitive | Uncompetitive | 
6 | O=c1c(O)cc([C@H]2Oc3cc(O)cc(O)c3C[C@H]2O)cc2c([C@H]3Oc4cc(O)cc(O)c4C[C@H]3O)cc(O)c(O)c12 [TF, theaflavin] | 5.8 ± 0.4 | 2.2 ± 0.4 | 98.97 ± 3.27 | 63.01 ± 3.73 | 43.9 ± 3.6 | 62.2 ± 2.9 | 162 ± 3.6 | 45.3 ± 3.4 | 63.1 ± 2.4 | 107 ± 3.9 | 83.1 ± 4.3 | Noncompetitive | Uncompetitive | Inhibition against DXR at a single concentration (E. coli DXR [1]; approximately 150 μM, 2% DMSO, VC): approximately 40%
7 | O=C1O[C@H]([C@@H](O)CO)C(O)=C1O [VC, ascorbic acid] |  |  |  |  |  |  |  |  |  |  |  |  |  | Effect on the activity of DXR (E. coli DXR [1]; 2 mM): no effect; Effect on the activity of AP (Calf intestine AP): no effect
8 | Triton X-100 |  |  |  |  |  |  |  |  |  |  |  |  |  | Effect on the activity of DXR (E. coli DXR [1]; 0.1%): no effect
